According to patent publication US20230398130A1, “METHODS AND COMPOSITIONS FOR DIFFERENTIATING STEM CELLS” (Massachusetts Institute of Technology, priority 2020, published 2023):

Assays:
[1] = test system: ISC-enriched organoids; assay: Primary screen, 384-well 2.5-D organoid differentiation (ENR+CD, 6 days, Target Selective Inhibitor Library, vs whole-plate median): ATP (CellTiter-Glo 3D, CTG); details: for Dose.FC.CTG: ENR+CD, 6 days, FC vs plate median; for Z.CTG: standard z score of FC
[2] = test system: ISC-enriched organoids; assay: Primary screen, 384-well 2.5-D organoid differentiation (ENR+CD, 6 days): carbachol-induced lysozyme secretion (LYZ.S); format: cell-based, murine; details: ENR+CD, 6 days, FC vs plate median
Source text: (§1) High-throughput screening.

[3] = test system: ISC-enriched organoids; assay: Primary screen, 384-well 2.5-D organoid differentiation (ENR+CD, 6 days): basal lysozyme secretion (LYZ.NS); format: cell-based, murine; details: for Dose.FC.LYZ.NS: ENR+CD, 6 days, FC vs plate median; for Z.LYZ.NS: standard z score of FC
Source text: as §1

Structure (SMILES)	Dose.FC.CTG ([1]; Dose 0.08 uM) [log 2 fold change]	Z.CTG ([1]; Dose 0.08 uM)	Dose.FC.CTG ([1]; Dose 0.40 uM) [log 2 fold change]	Z.CTG ([1]; Dose 0.40 uM)	Dose.FC.CTG ([1]; Dose 2.00 uM) [log 2 fold change]	Z.CTG ([1]; Dose 2.00 uM)	Dose.FC.CTG ([1]; Dose 10.00 uM) [log 2 fold change]	Z.CTG ([1]; Dose 10.00 uM)	Dose.FC.LYZ.S ([2]; Dose 0.08 uM) [log 2 fold change]	Dose.FC.LYZ.S ([2]; Dose 0.40 uM) [log 2 fold change]	Dose.FC.LYZ.S ([2]; Dose 2.00 uM) [log 2 fold change]	Dose.FC.LYZ.S ([2]; Dose 10.00 uM) [log 2 fold change]	Dose.FC.LYZ.NS ([3]; Dose 0.08 uM) [log 2 fold change]	Z.LYZ.NS ([3]; Dose 0.08 uM)	Dose.FC.LYZ.NS ([3]; Dose 0.40 uM) [log 2 fold change]	Z.LYZ.NS ([3]; Dose 0.40 uM)	Dose.FC.LYZ.NS ([3]; Dose 2.00 uM) [log 2 fold change]	Z.LYZ.NS ([3]; Dose 2.00 uM)	Dose.FC.LYZ.NS ([3]; Dose 10.00 uM) [log 2 fold change]	Z.LYZ.NS ([3]; Dose 10.00 uM)
NC(=O)C1CCCc2c1[nH]c1ccc(Cl)cc21 (centres unmarked) [EX 527 (Selisistat)]	0.240	0.574	0.174	0.415	0.341	0.814	0.320	0.766	0.062	0.047	−0.051	−0.011	0.100	0.871	0.059	0.512	0.030	0.261	0.057	0.494
COc1cc2c(cc1Cc1cccc(Cl)c1F)c(=O)c(C(=O)O)cn2[C@H](CO)C(C)C [Elvitegravir (GS-9137, JTK-303)]	−0.001	−0.001	−0.040	−0.095	−0.344	−0.823	−0.737	−1.760	−0.010	0.092	−0.126	−0.135	−0.047	−0.412	−0.069	−0.598	−0.094	−0.821	−0.090	−0.782
OC[C@H]1O[C@@H](c2ccc(Cl)c(Cc3ccc(O[C@H]4CCOC4)cc3)c2)[C@H](O)[C@@H](O)[C@@H]1O [Empagliflozin (BI 10773)]	−0.296	−0.707	−0.075	−0.178	−0.192	−0.458	−0.134	−0.320	−0.051	−0.055	−0.103	−0.022	−0.006	−0.052	−0.034	−0.294	−0.009	−0.081	0.017	0.144
C[C@H](N[C@@H](CCc1ccccc1)C(=O)O)C(=O)N1CCC[C@H]1C(=O)O.O.O [Enalaprilat Dihydrate]	−0.190	−0.454	−0.124	−0.296	−0.331	−0.791	−0.979	−2.338	−0.001	0.111	−0.095	−0.281	0.003	0.027	−0.003	−0.030	−0.022	−0.195	−0.157	−1.364
CNC(=O)c1ccc(N2C(=S)N(c3ccc(C#N)c(C(F)(F)F)c3)C(=O)C2(C)C)cc1F [Enzalutamide (MDV3100)]	0.195	0.465	0.256	0.611	0.076	0.181	0.146	0.348	0.176	0.276	0.077	0.076	0.162	1.411	0.166	1.446	0.024	0.210	0.094	0.820
Cn1cc(C2=C(c3cn(C4CCN(Cc5ccccn5)CC4)c4ccccc34)C(=O)NC2=O)c2ccccc21 [Enzastaurin (LY317615)]	0.236	0.565	0.475	1.135	0.251	0.600	−0.081	−0.194	0.109	0.251	0.053	−0.226	0.085	0.744	0.131	1.143	0.053	0.458	−0.116	−1.012
CCOC(=O)c1cncn1[C@H](C)c1ccccc1 [Etomidate]	0.084	0.201	0.006	0.014	0.163	0.389	0.039	0.094	0.053	0.048	0.054	−0.008	−0.008	−0.065	0.037	0.318	0.015	0.131	−0.001	−0.010
CO[C@H]1C[C@@H]2CC[C@@H](C)[C@@](O)(O2)C(=O)C(=O)N2CCCC[C@H]2C(=O)O[C@H]([C@H](C)C[C@@H]2CC[C@@H](OCCO)[C@H](OC)C2)CC(=O)[C@H](C)/C=C(\C)[C@@H](O)[C@@H](OC)C(=O)[C@H](C)C[C@H](C)/C=C/C=C/C=C/1C [Everolimus (RAD001)]	0.392	0.936	0.127	0.304	0.132	0.314	−0.111	−0.266	−0.012	−0.007	−0.039	−0.096	0.068	0.590	0.110	0.956	−0.003	−0.030	−0.024	−0.210
CC1=C(C(=O)OC2CCCCC2)C(c2ccc([N+](=O)[O-])cc2)C2=C(CC(C)(C)CC2=O)N1 (centres unmarked) [FLI-06]	0.089	0.213	0.095	0.226	0.076	0.182	−0.343	−0.819	0.079	0.010	−0.077	−0.170	0.050	0.439	−0.026	−0.230	−0.054	−0.466	−0.140	−1.216
CCOC(=O)c1ccc(NC2CCCCC2)c(N)c1 [Ferrostatin-1 (Fer-1)]	0.312	0.745	0.453	1.082	0.215	0.514	−0.046	−0.109	0.120	0.207	0.092	−0.018	0.108	0.944	0.116	1.012	0.070	0.610	0.013	0.116
